Laboratory results: patent US20220380476A1, “Use of an anti-CCR7 antibody in combination therapies with a BTK inhibitor and/or BCL2- inhibitor for treating hematological malignancies” (Catapult Therapeutics B.V., priority 2019, published 2022)
“Also recorded” adds a separate entry of the source. Values belong to the molecule of their own block, whether it stands above or below them.

Experiments:
[1] = test system: primary cells from patients with B-cell malignancies; details: in vitro; cited from earlier work
[2] = target: MCL-1 (Homo sapiens, UniProt Q07820); details: cited from earlier work
Sequence of MCL-1 (Q07820 whole entry, species assumed): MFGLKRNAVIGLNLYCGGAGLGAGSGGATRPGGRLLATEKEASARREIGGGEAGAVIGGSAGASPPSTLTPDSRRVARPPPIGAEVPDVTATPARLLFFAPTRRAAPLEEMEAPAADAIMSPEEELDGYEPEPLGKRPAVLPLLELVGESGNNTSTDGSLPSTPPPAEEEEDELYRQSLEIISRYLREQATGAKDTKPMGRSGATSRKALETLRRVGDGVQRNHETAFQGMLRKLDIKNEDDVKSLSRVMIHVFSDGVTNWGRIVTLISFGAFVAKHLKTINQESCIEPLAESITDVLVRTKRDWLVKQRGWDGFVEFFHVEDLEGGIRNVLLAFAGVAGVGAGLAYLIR

[3] = test system: lymphoma and other blood cancers; details: cited from earlier work
[4] = target: Bcl-2 (Homo sapiens, UniProt P10415); details: cited from earlier work
Sequence of Bcl-2 (P10415 whole entry): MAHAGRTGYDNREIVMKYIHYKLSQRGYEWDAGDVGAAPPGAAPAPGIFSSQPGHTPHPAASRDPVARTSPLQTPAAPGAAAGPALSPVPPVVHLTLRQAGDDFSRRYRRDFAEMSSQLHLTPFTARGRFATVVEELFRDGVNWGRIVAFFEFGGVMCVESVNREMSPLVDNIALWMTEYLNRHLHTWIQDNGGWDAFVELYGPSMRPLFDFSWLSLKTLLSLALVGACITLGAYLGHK

[5] = test system: CCR7; assay: Flow cytometry of surface CCR7 expression in CLL cells from treated patients; format: in vivo, human; details: for change in surface CCR7 expression compared with naïve patients: CLL patients on treatment
Protocol: Systems). […] Data acquisition was performed on a BD FACSCanto™ 11 Flow Cytometer (BD Biosciences).

[6] = test system: patients with chronic lymphocytic leukemia (CLL); details: cited from earlier work
[7] = test system: BCL-XL and BCL-W; details: cited from earlier work
[8] = target: CD20 (human) (UniProt P11836)
Sequence of CD20 (human) (P11836 whole entry): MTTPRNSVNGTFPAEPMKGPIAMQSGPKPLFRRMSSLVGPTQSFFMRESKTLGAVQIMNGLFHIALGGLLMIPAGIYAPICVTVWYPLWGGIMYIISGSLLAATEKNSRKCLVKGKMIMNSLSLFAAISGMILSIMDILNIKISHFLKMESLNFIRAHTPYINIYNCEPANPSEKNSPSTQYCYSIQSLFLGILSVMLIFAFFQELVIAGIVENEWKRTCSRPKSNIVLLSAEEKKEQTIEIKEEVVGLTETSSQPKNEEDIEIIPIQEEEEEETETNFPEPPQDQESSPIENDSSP

[9] = test system: Bcl-2 mRNA; details: cited from earlier work
[10] = target: T1, human CC motif receptor 7 (CCR7) (human, UniProt P32248 25-378); assay: cell-based or functional assay
T1 sequence (looked up): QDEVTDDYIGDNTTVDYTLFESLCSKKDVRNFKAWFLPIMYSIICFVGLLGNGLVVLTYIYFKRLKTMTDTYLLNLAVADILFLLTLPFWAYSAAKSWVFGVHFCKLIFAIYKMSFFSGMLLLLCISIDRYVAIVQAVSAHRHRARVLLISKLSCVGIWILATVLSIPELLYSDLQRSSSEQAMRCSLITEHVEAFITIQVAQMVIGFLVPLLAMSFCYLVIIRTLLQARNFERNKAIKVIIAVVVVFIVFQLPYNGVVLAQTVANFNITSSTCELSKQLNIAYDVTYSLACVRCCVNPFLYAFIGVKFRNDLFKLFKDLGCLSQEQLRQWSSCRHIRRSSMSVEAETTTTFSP

[11] = target: T1, human CC motif receptor 7 (CCR7); assay: cell-based or functional assay; remark: listed apart in the source
[12] = target: T1, human CC motif receptor 7 (CCR7); assay: cell-based or functional assay; remark: listed apart in the source
[13] = target: T1, human CC motif receptor 7 (CCR7); assay: cell-based or functional assay; remark: listed apart in the source
[14] = target: T1, human CC motif receptor 7 (CCR7); assay: cell-based or functional assay; remark: listed apart in the source
[15] = target: T1, human CC motif receptor 7 (CCR7); assay: cell-based or functional assay; remark: listed apart in the source

Molecule: CN(C)CC[C@H](CSc1ccccc1)Nc1ccc(S(=O)(=O)NC(=O)c2ccc(N3CCN(Cc4ccccc4-c4ccc(Cl)cc4)CC3)cc2)cc1[N+](=O)[O-] [ABT-737, 4-[4-[(4′-chloro[1,T-biphenyl]-2-yl)methyl]-1-piperazinyl]A/-[[4-[[(1R)-3-(dimethylamino)-1-[(phenylthio)methyl]propyl]amino]-3-nitrophenyl]sulfonyl]benzamide]
sensitivity of primary cells [1]: sensitive | activity against MCL-1 [2]: not A1 or Mcl-1 | survival ([3]; animal models): improves survival | tumor regression ([3]; animal models): causes tumor regression | efficacy in patient xenografts ([3]; preclinical studies utilizing patient xenografts): shows efficacy | affinity for Bcl-2, Bcl-xL and Bcl-w compared with previous Bcl-2 inhibitors [4]: higher affinity

Molecule: CC#CC(=O)N1CCC[C@H]1c1nc(-c2ccc(C(=O)Nc3ccccn3)cc2)c2c(N)nccn12 [acalabrutinib]
change in surface CCR7 expression compared with naïve patients [5]: unchanged; also recorded: no changes

Molecule: CC1(C)CCC(c2ccc(Cl)cc2)=C(CN2CCN(c3ccc(C(=O)NS(=O)(=O)c4ccc(N[C@H](CCN5CCOCC5)CSc5ccccc5)c(S(=O)(=O)C(F)(F)F)c4)cc3)CC2)C1 [navitoclax, 4-(4-{[2-(4-Chlorophenyl)-5,5-dimethyl-1-cyclohexen-1-yl]methyl}-1-piperazinyl)-N-[(4-{[(2R)-4-(4-morpholinyl)-1-(phenylsulfanyl)-2-butanyl]amino}-3-[(trifluoromethyl)sulfonyl]phenyl)sulfonyl]-benzamide]
activity against MCL-1 [2]: not A1 or Mcl-1 | affinity for Bcl-2, Bcl-xL and Bcl-w compared with previous Bcl-2 inhibitors [4]: higher affinity

Molecule: CC1(C)CCC(CN2CCN(c3ccc(C(=O)NS(=O)(=O)c4ccc(NCC5CCOCC5)c([N+](=O)[O-])c4)c(Oc4cnc5[nH]ccc5c4)c3)CC2)=C(c2ccc(Cl)cc2)C1 [venetoclax]
clinical response [6]: Good responses | thrombocytopenia [6]: not observed | binding affinity to BCL-XL and BCL-W [7]: significantly lower affinity | inhibition of Bcl-xL or Bcl-w [7]: not Bcl-xL or Bcl-w | activity against MCL-1 [2]: no activity | percentage of CCR7-expressing CLL cells ([5]; CLL cells from patients on treatment): approximately 100% | change in surface CCR7 expression compared with naïve patients [5]: maintained in essentially all CLL cells

Molecule: C=CC(=O)N1CCC([C@@H]2CCNc3c(C(N)=O)c(-c4ccc(Oc5ccccc5)cc4)nn32)CC1 [zanabrutinib]
change in surface CCR7 expression compared with naïve patients [5]: unchanged; also recorded: no changes

EC50 (read off the curve); ADCC on CLL cells of a patient receiving venetoclax [8]: 2 µg/mL
Molecule: RTX (antibody)

Molecule: oblimersen
cell proliferation [9]: inhibited

IC50 (read off the curve); CCL21-induced migration of CLL cells of a patient receiving venetoclax [10]: ~0.1 µg/mL | EC50 (read off the curve); ADCC on CLL cells of a patient receiving venetoclax [11]: ~0.2 µg/mL | EC50 (read off the curve); ADCC on CLL cells of a patient with disease relapsed/refractory to ibrutinib [12]: ~1 µg/mL | IC50 (read off the curve); CCL19-induced migration of CLL cells of an ibrutinib patient [13]: ~0.2 µg/mL | EC50 (read off the curve); ADCC on CLL cells of a patient receiving ibrutinib [14]: ~1 µg/mL | EC50 (read off the curve); ADCC on CLL cells of a patient receiving zanabrutinib [15]: ~0.8 µg/mL
B1: CAP-100 (antibody, human IgG1, V domains shown)
VH: EVQLLESGGGFVKPGGSLKLSCVVSGLTFRDFAMSWVRQTPEKRLVWVATISSGGFYTYYPDSVKGRFTISRDNVRNILYLQMSSLRSEDTAVYYCVRRAYRYDGTGDYSALDYWGTGTTVTVSS
VL: DIQMTQSPSSLSASVGDRVTITCRASQDIGPSLNWYQQKPGKAPKRLIYATSNLDSGVPSRFSGSGSGTDFTLTISSLQPEDFATYYCLQFASSPLTFGQGTKVEIK
